Experimental data published in patent publication US9562060B2, “Heterocyclic pyridone compound, and intermediate, preparation method and use thereof” (SHANGHAI HUILUN LIFE SCIENCE & TECHNOLOGY CO., LTD, priority 2011, dated 2017).
pIC50: −log10 of the molar value. Where two headings read alike, the source gives them in different places.

What was measured:
[1] = biological target: T1, c-Met kinase (Homo sapiens, UniProt P08581); assay: Inhibitory activity of compound to c-Met kinases (Z'-LYTE kinase assay kit); assay type: biochemical; details: Tyr 6 substrate peptide, read-out: Strength of activity (inhibition on c-Met kinase, IC50)
T1 construct: purchased Invitrogen PV3143
Method: The inhibitory activity of the compound to c-Met kinases in vitro is determined through the following method.
The method described below can be used to determine the inhibiting capacity of the compound of the present invention on the c-Met kinase activity, and the inhibiting capacity is represented by IC50. The half inhibitory concentration IC50 (a concentration of the compound for inhibiting the enzyme activity to 50%) of the compound is obtained by: mixing and reacting a certain amount of kinase with a specific substrate and different concentrations of test compound, and then labeling the substrate with an anti-phosphotyrosine antibody and a […], and finally quantitatively determining the c-Met kinase activity through a time-resolved fluorescence method.
The specific experiment is implemented by using a Z′-LYTE kinase assay kit (Invitrogen, item PV4122). First, the test compound is diluted into 8 different concentrations from 100 μM at an interval of 1:5 with an ATP solution (Invitrogen, item PV3227); 5 μL 2×c-Met (Invitrogen, item PV3143) and 2×Z′-LYTE Tyr 6 substrate peptide are respectively taken up, and added to a 384-well microtiter plate, 5 μL diluted different concentrations of test compound are added in sequence, and the lid is closed. The microtiter plate is incubated for 60 min at room temperature (20° C. to 25° C.); and then 5 μL […] is added, and the lid is closed. The microtiter plate is incubated for 60 min at room temperature (20° C. to 25° C.); and then 5 μL termination reagent is added to the reaction well, to terminate the reaction. Finally, the fluorescence intensity (OD400) of each well is determined in a fluorescence analyzer (excitation wavelength: 400 nm). The inhibition rate is calculated, and the half inhibitory concentration (IC50) of the compound is calculated according to the inhibition rates of different concentrations.
For a negative control group, except that test compound (replaced by 5 μL ATP solution) is not added, all the other reagents are added. In addition, an enzyme-free control group (that is, blank group) is set.

[2] = test system: Human gastric cancer cell SNU-5; assay: Inhibition of in vitro proliferation of human gastric cancer cell SNU-5 (SRB); assay type: cell-based; details: SNU-5 cells, 72-hr agent treatment, read-out: Strength of activity (inhibition on SNU-5, IC50)
Method: Human gastric cancer cells SNU-5 are cultured in an IMDM medium containing 20% fetal bovine serum, and the culture conditions are 37° C. and 5% CO2. Tumor cells are inoculated in a 96-well plate, and after 24-hr sidewall growth, 9 different concentrations of (1 to 30000 nM) an agent are added, after 72-hr agent treatment, the medium is discarded, the cells are fixed by cold trichloroacetic acid, and then dyed with a sulforhodamine B (SRB) solution. Unbound SRB is washed off, and SRB bound with protein was dissolved with Tris, the OD is determined at a wavelength of 510 nm by a microplate reader, and the cell growth inhibition rate is calculated according to the following equation: Inhibition rate=(OD of control well-OD of administered well)/OD of control well×100%
According to the inhibition rates of different concentrations, the half inhibitory concentration IC50 is calculated by using a Logit method.

[3] = test system: human malignant glioma U87-MG xenografts; assay: Efficacy on human malignant glioma U87-MG xenografts in nude mice; assay type: in vivo, BALB/cA-nude nude mice; details: 100 mg/kg orally once per day for 16 days
Method: The human malignant glioma U87-MG is purchased from ATCC (American Type Culture Collection), America.
BALB/cA-nude nude mice (♀, 6-7 weeks old) are purchased from Shanghai SLAC Laboratory Animal Co. Ltd. Breeding environment: SPF grade.
In vitro-cultured malignant glioma U87-MG cells are inoculated subcutaneously in nude mice, and after the tumor grows to a size of 100 to 250 mm^3, the animals are randomly divided into groups (d0). The dose of the test agent is 100 mg/kg, and the agent is orally administered once per day for continuous 16 days. The volume of the tumor is measured two to three times per week, the mice are weighed, and the data is recorded. The tumor volume (V) is calculated according to the equation: V=1/2×a×b^2, where a and b respectively represent length and width.
The antineoplastic efficacy is evaluated according to tumor inhibition rate, and the tumor inhibition rate is calculated according to the equation below: Tumor inhibition rate=1−(T−T0)/(C−C0), • where T and C are respectively tumor volumes of the test agent group mice and the blank group mice at the end of the experiment; and T0 and C0 are tumor volumes at the start of the experiment.

T1 sequence (P08581 25-1390): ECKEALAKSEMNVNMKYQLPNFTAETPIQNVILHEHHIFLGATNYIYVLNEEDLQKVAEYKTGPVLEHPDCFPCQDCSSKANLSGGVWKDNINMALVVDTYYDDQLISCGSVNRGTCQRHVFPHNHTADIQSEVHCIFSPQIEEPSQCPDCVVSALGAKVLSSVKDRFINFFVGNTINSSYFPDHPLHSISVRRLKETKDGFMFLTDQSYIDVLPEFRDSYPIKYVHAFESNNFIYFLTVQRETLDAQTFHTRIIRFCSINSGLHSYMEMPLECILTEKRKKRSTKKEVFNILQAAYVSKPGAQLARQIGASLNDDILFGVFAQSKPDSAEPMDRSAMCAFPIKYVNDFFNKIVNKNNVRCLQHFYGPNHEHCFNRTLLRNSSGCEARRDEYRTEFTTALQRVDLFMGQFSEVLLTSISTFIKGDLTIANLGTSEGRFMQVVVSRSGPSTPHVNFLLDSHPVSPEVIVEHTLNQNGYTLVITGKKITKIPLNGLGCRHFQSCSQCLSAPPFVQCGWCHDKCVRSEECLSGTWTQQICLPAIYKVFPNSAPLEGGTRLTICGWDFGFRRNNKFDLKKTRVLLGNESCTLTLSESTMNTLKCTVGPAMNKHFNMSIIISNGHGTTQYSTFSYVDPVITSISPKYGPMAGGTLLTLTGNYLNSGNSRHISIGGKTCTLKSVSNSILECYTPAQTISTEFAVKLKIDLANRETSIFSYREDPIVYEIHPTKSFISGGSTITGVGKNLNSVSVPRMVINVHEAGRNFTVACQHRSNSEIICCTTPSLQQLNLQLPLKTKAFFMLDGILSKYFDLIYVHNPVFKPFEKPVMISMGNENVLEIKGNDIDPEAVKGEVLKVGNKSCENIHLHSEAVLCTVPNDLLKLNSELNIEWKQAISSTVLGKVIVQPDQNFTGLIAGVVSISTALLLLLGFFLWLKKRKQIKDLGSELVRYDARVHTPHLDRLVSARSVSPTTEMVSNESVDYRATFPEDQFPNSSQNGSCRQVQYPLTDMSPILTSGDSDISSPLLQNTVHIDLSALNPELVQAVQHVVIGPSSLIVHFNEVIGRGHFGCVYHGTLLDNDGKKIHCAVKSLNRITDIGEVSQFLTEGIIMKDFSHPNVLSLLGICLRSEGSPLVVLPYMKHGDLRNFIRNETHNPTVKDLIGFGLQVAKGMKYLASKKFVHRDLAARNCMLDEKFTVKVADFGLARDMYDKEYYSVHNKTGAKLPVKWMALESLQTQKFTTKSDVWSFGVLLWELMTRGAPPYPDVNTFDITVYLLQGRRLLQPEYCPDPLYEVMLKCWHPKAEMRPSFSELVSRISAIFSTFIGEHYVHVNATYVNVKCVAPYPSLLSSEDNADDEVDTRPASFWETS

Row | pIC50 [1] | pIC50 ([2]; Homo sapiens) | pIC50 [2] | SMILES | Tumor Inhibition Rate (%) [3]
1 | 7.00 to 8.00 | > 7.00 |  | Nc1cc(Oc2ccc(NC(=O)c3cc4ncsc4n(-c4ccc(F)cc4)c3=O)cc2F)ccn1 [Embodiment 1] | 62%
2 | > 8.00 | 6.30 to 7.00 |  | Nc1nccc(Oc2ccc(NC(=O)c3cc4ncsc4n(-c4ccc(F)cc4)c3=O)cc2F)c1Cl [Embodiment 2] | 16%
3 | 7.00 to 8.00 | 6.30 to 7.00 |  | COc1ccc2c(Oc3ccc(NC(=O)c4cc5ncsc5n(-c5ccc(F)cc5)c4=O)cc3F)ccnc2c1 [Embodiment 3] | 91%
4 | > 8.00 |  | 6.30 to 7.00 | O=C(Nc1ccc(Oc2ccnc3[nH]ccc23)c(F)c1)c1cc2ncsc2n(-c2ccc(F)cc2)c1=O [Embodiment 4] | 26%
5 | > 8.00 |  | > 7.00 | COc1cc2c(Oc3ccc(NC(=O)c4cc5ncsc5n(-c5ccc(F)cc5)c4=O)cc3F)ccnc2cc1OCCCN1CCOCC1 [Embodiment 5] | 74%
